For one data set, the target named is human μ-opiate receptor (Homo sapiens, UniProt P35372). As to the kind of experiment: μ binding: [3H]-naloxone displacement, membrane preparation of CHO-K1 cells expressing the human μ-opiate receptor. Conditions: [3H]-naloxone 1 nmole/l; Cheng-Prusoff conversion; read-out: μ-Opioid receptor, Ki value.

pKi: −log10 of the molar value. Counter-ions that a name gives are not always drawn.

Chain of human μ-opiate receptor (P35372 whole entry): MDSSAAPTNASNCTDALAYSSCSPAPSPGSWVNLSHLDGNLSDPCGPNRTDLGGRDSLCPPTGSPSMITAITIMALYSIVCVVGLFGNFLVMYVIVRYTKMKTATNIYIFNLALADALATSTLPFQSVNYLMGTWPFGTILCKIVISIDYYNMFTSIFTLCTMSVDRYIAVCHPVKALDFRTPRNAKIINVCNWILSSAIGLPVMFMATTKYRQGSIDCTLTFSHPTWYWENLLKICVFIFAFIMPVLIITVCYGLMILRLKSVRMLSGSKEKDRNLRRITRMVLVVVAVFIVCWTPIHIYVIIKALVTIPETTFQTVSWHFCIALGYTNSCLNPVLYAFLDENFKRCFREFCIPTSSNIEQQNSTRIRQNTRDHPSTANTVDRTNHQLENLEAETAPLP

A word on the melting point: it is the temperature of the solid-liquid transition. Compound `CN(C)C1(c2ccccc2)CCC2(CC1)SCCc1c2[nH]c2ncccc12` (stereo not drawn) (as salt: citrate) came in with a melting point of 246 to 253 °C.

With `CN(C)C1(c2ccccc2)CCC2(CC1)SCCc1c2[nH]c2ccncc12` (stereo not drawn) (as salt: citrate), the melting point fell in the range of 163 to 168 °C.

One may read the pKi as the Ki on a negative log10 scale, so that one unit is a factor of ten. Consider `c1ccc(CC2(N3CCOCC3)CCC3(CC2)OCCc2c3[nH]c3ncccc23)cc1` (stereo not drawn) [Example 19, 4-benzyl-4-morpholino-spiro[cyclohexane-1,8′-(5,6,8,9-tetrahydropyrano[3,4-b]-7-azaindole)]], for which, on human μ-opiate receptor, the pKi was 5.54.

For the origin of these results see US8399503B2, “Spirocyclic azaindole derivatives” (Gruenenthal GmbH, priority 2006, dated 2013).
